Data set [1] has as its system Mycobacterium tuberculosis. Kind of data set: Antimycobacterial activity against Mycobacterium tuberculosis after 5 days by MABA. In kind it is functional. Particulars: 120 h.
For data set [2], the system named is Mycobacterium tuberculosis. Kind of data set: Antimycobacterial activity against Mycobacterium tuberculosis ATCC 27294 by MABA. Type of data set: functional.
Data set [3] has as its system Mycolicibacterium smegmatis. Kind of data set: Potency index, ratio of MIC for rifampin to MIC for test compound for Mycobacterium smegmatis CMCC 93202. Type of data set: functional.
In data set [4] the test system is Mycolicibacterium smegmatis. The data set is described as follows: Potency index, ratio of ciprofloxacin MIC to compound MIC for Mycobacterium smegmatis CMCC 93202. In kind it is functional.
Data set [5] concerns Mycolicibacterium smegmatis. Kind of data set: Potency index, ratio of MIC for 8-OCH3 ciprofloxacin to MIC for test compound for Mycobacterium smegmatis CMCC 93202. In kind it is functional.
The test system of data set [6] is Mycolicibacterium smegmatis. The data set is described as follows: Antimycobacterial activity against Mycobacterium smegmatis CMCC 93202. In kind it is functional.
In data set [7] the test system is Mycolicibacterium smegmatis. The data set is described as follows: Potency index, ratio of MIC for moxifloxacin to MIC for test compound for Mycobacterium smegmatis CMCC 93202. Type of data set: functional.
Data set [8] deals with Mycobacterium tuberculosis. Kind of data set: Antimycobacterial activity against Mycobacterium tuberculosis H37Rv after 12 to 28 days by Lowenstein and Jensen method. In kind it is functional.
In data set [9] the test system is Mycobacterium tuberculosis. The data set is described as follows: Antimycobacterial activity against Mycobacterium tuberculosis H37Rv […] by BACTEC MGIT method. Type of data set: functional.
Data set [10] relates to Mycolicibacterium vaccae. The data set is described as follows: Antimycobacterial activity against Mycolicibacterium vaccae 10670. In kind it is functional.
The test system of data set [11] is Mycobacterium tuberculosis. The data set is described as follows: Antimycobacterial activity against Mycobacterium tuberculosis H37Rv after 72 hrs by alamar blue dye-based broth dilution assay. In kind it is functional.
In data set [12] the test system is Mycobacterium tuberculosis. Kind of data set: Antimycobacterial activity against Mycobacterium tuberculosis H37Rv by broth dilution assay. In kind it is functional.
The subject of data set [13] is Mycobacterium tuberculosis. The data set is described as follows: Growth inhibition of Mycobacterium tuberculosis H37Rv at 6.25 ug/ml by MABA method relative to control. In kind it is functional. Particulars: read-out: GI.
For data set [14], the system named is Mycobacterium tuberculosis. Kind of data set: Antimycobacterial activity against Mycobacterium tuberculosis H37Rv by MABA. Type of data set: functional.
In data set [15] the test system is Mycobacterium tuberculosis. Kind of data set: Antimycobacterial activity against Mycobacterium tuberculosis H37Rv ATCC 27294 by BACTEC method. Type of data set: functional.
Data set [16] in a line: Selectivity index, ratio of LD50 for African green monkey Vero cells to MIC>99 for Mycobacterium tuberculosis H37Rv. To be noted: read-out: Selectivity Index. In kind it is toxicity.
Data set [17] has as its system Mycobacterium tuberculosis. The data set is described as follows: Antimycobacterial activity against Mycobacterium tuberculosis H37Rv by BACTEC radiometric assay. In kind it is functional.
Data set [18] in a line: Cytotoxicity against African green monkey Vero cells by CellTiter 96 non-radioactive cell proliferation assay. Type of data set: cell-based. To be noted: chlorocebus sabaeus, read-out: LD50 (the source's name).

In brackets after ≈: the same amount, converted by molar mass.

Consider `Cc1cc(=O)oc2cc(OCc3cn(Cc4cc(=O)oc5ccc6ccccc6c45)nn3)ccc12`, for which the MIC in [1] came out at 6.25 µg/mL (≈ 13.4 µM).

As for `Cc1cc(=O)oc2cc(OCc3cn(Cc4cc(=O)oc5cc(Cl)ccc45)nn3)ccc12`, 6.25 µg/mL (≈ 13.9 µM) was the least that counted as inhibitory in data set [1] (MIC).

In data set [2], `O=C(N/N=C/c1cccc(O)c1)c1cc2ccccc2oc1=O` yielded a minimal inhibitory concentration (MIC) of 50 to 100 µg/mL (≈ 162 to 324 µM).

The compound `Cc1cc(=O)oc2cc(OCc3cn(Cc4cc(=O)oc5ccc(Cl)cc45)nn3)ccc12` had an MIC in data set [1] of 6.25 µg/mL (≈ 13.9 µM).

Take `COc1ccc2cc(C(=O)CN3CCN(c4c(F)cc5c(=O)c(C(=O)O)cn(C6CC6)c5c4OC)CC3)c(=O)oc2c1`: the Ratio in [3], in [4], in data set [5] and in data set [7] was 2 - 8 in each case. Moreover, the minimum inhibitory concentration (MIC) in [6] was 0.25 µg/mL (≈ 0.433 µM).

As for `O=C(N/N=C/c1ccc([N+](=O)[O-])cc1)c1cc2ccccc2oc1=O`, the MIC in data set [2] lay in the range of 50 to 100 µg/mL (≈ 148 to 296 µM).

Regarding `N#Cc1ccc(Nc2nc(Oc3cc(=O)oc4ccccc34)nc(N3CCN(c4cccc(C(F)(F)F)c4)CC3)n2)cc1C(F)(F)F`, the MIC was 100 to 1000 µg/mL (≈ 153 to 1530 µM) in [8] and > 6.25 µg/mL in data set [9].

Compound `Cc1ccc2oc(=O)c3c(O)c4cccc(O[C@@H]5O[C@H](C)[C@@H](O)[C@H](O)[C@H]5O[C@@H]5O[C@@H](C)[C@@H](O)[C@@H](O)[C@@H]5O)c4c4oc(=O)c1c2c34` yielded an MIC in [10] of 1.22 µM (≈ 0.764 µg/mL).

In [2], `COc1cccc(/C=N/NC(=O)c2cc3ccccc3oc2=O)c1` returned an MIC of 50 to 100 µg/mL (≈ 155 to 310 µM).

Compound `Cc1cc2oc(=O)c(C(c3cccs3)c3c(O)c4cc(C)c(C)cc4oc3=O)c(C)c2cc1C` (stereo unspecified) had an MIC in data set [11] of 5.22 µM (≈ 2.47 µg/mL).

In data set [12], `O=c1oc2ccccc2cc1-c1cn2nc(C(F)(F)F)sc2n1` had an MIC of 40 µg/mL (≈ 119 µM).

In [2], `O=C(N/N=C/c1ccc(O)cc1O)c1cc2ccccc2oc1=O` came in with an MIC of 50 to 100 µg/mL (≈ 154 to 308 µM).

Consider `N#Cc1ccc(Nc2nc(Oc3cc(=O)oc4ccccc34)nc(N3CCN(c4ccccc4F)CC3)n2)cc1C(F)(F)F`, for which the minimal inhibitory concentration (MIC) in data set [8] is 100 to 1000 µg/mL (≈ 166 to 1660 µM); in data set [9], > 6.25 µg/mL.

With `Cn1c(=O)cc(Oc2nc(Nc3ccc(C#N)c(C(F)(F)F)c3)nc(N3CCN(c4ccc(F)cc4)CC3)n2)c2ccccc21`, the MIC in data set [8] was 100 to 1000 µg/mL (≈ 162 to 1620 µM); in data set [9] it was > 6.25 µg/mL.

Consider `COc1ccc(/C=N/NC(=O)c2cc3ccccc3oc2=O)cc1`, for which the MIC in [2] lay within 50 to 100 µg/mL (≈ 155 to 310 µM).

In [2], `O=C(N/N=C/c1cccc(Cl)c1)c1cc2ccccc2oc1=O` returned a minimal inhibitory concentration (MIC) of 50 to 100 µg/mL (≈ 153 to 306 µM).

For the compound `COc1ccc(-c2cc(-c3ccc(O)cc3)nc(/N=c3\ccc4ccccc4o3)n2)cc1`, the inhibition of growth at 6.25 µg/mL in data set [13] stood at 37%. In addition, the MIC in [14] lay in the range of 9.6 to 240 µg/mL (≈ 22.8 to 569 µM).

On to `O=C(N/N=C/c1ccc(O)cc1)c1cc2ccccc2oc1=O`, for which the MIC in [2] is 50 to 100 µg/mL (≈ 162 to 324 µM).

With `N#Cc1ccc(Nc2nc(Oc3cc(=O)oc4ccccc34)nc(N3CCN(c4ccc(F)cc4)CC3)n2)cc1C(F)(F)F`, the MIC is 100 to 1000 µg/mL (≈ 166 to 1660 µM) in [8] and > 6.25 µg/mL in [9].

Regarding `Cn1c(=O)cc(Oc2nc(Nc3ccc(C#N)c(C(F)(F)F)c3)nc(N3CCN(c4cccc(C(F)(F)F)c4)CC3)n2)c2ccccc21`, the MIC was 100 to 1000 µg/mL (≈ 150 to 1500 µM) in data set [8] and > 6.25 µg/mL in data set [9].

As to `N#Cc1ccc(Nc2nc(Oc3cc(=O)oc4ccccc34)nc(N3CCN(c4ccc(C(F)(F)F)cc4)CC3)n2)cc1C(F)(F)F`, the MIC was 100 to 1000 µg/mL (≈ 153 to 1530 µM) in [8] and > 6.25 µg/mL in data set [9].

As to `COc1ccc(-c2cc(-c3ccc([N+](=O)[O-])cc3)nc(/N=c3\ccc4ccccc4o3)n2)cc1`, the inhibition of growth at 6.25 µg/mL in data set [13] amounted to 65%. In addition, in data set [14], the minimum inhibitory concentration (MIC) lay within 9.6 to 240 µg/mL (≈ 21.3 to 533 µM).

Turning to `Cn1c(=O)cc(Oc2nc(Nc3ccc(C#N)c(C(F)(F)F)c3)nc(N3CCN(c4ccc(C(F)(F)F)cc4)CC3)n2)c2ccccc21`, the MIC is 100 to 1000 µg/mL (≈ 150 to 1500 µM) in data set [8] and > 6.25 µg/mL in data set [9].

With `Cn1c(=O)cc(Oc2nc(Nc3ccc(C#N)c(C(F)(F)F)c3)nc(N3CCN(c4ccccc4F)CC3)n2)c2ccccc21`, the MIC in [8] is 100 to 1000 µg/mL (≈ 162 to 1620 µM); in data set [9] it was > 6.25 µg/mL.

`O=c1oc2ccccc2cc1C(c1cccs1)c1c(O)c2ccccc2oc1=O` (stereo unspecified) registered an MIC in [11] of 5.22 µM (≈ 2.1 µg/mL).

For the compound `Oc1ccc(-c2cc(-c3ccc(Cl)cc3)nc(/N=c3\ccc4ccccc4o3)n2)cc1`, the inhibition of growth at 6.25 µg/mL in data set [13] was determined as 70%. The compound further showed an MIC in data set [14] of 9.6 to 240 µg/mL (≈ 22.5 to 564 µM).

In data set [15], `CCCc1cc(=O)oc2c3c(c4c(c12)OC(C)(C)C=C4)O[C@H](C)[C@@H](C)[C@@H]3O` [CALANOLIDE A] registered an MIC of 3.13 µg/mL (≈ 8.45 µM).

For the compound `NC(=O)c1cnccn1` [PYRAZINAMIDE], the MIC in data set [2] is > 100 µg/mL.

Turning to `C[C@H]1[C@H](C)Oc2c3c(c4c(-c5ccccc5)cc(=O)oc4c2[C@H]1O)OC(C)(C)C=C3` [SOULATTROLIDE], in data set [16], the selectivity ratio was > 3.2. Further, the MIC99 in data set [17] is 3.13 µg/mL (≈ 7.74 µM). Also, the CC50 in [18] was > 10 µg/mL.

Values taken from ChEMBL document CHEMBL4138081, “Recent developments of coumarin-containing derivatives and their anti-tubercular activity” (Eur J Med Chem, 2017).
